On the set-up of data set [1]: method as in doi:10.1007/s002130000545, PMID 12404536, PMID 12869661. The following applies: following ecstasy consumption; cited from earlier work.
The test system of a further data set is CYP2D6. In words: Isolated perfused rat liver, tramadol O-demethylation to M1 after MDMA or paroxetine pretreatment. In kind it is in vivo. The following applies: tramadol 1 µg/mL, n=4; for Metabolite ratio M1 % decrease compared to the control group: AUC0-t M1 / AUC0-t tramadol.
The nature of data set [2]: Isolated perfused rat liver, tramadol AUC in perfusate after MDMA or paroxetine pretreatment. In kind it is in vivo. Particulars: MDMA 1, 5 and 10 mg/kg i.p.; tramadol 1 µg/mL.
For another data set, the system named is CYP3A4. The experiment in a line: Isolated perfused rat liver, tramadol N-demethylation to M2 after MDMA or paroxetine pretreatment. Particulars: regular doses of MDMA (1-10 mg/kg). Type of data set: in vivo.

Marks after values point to notes of the source that are not given here.

In the case of `CNC(C)Cc1ccc2c(c1)OCO2` (stereo not shown) [MDMA, methylenedioxymethamphetamine], the “duration of positive psychological effects” value in data set [1] is on record as 3-6 hours. The “AUC M1 % decrease compared to the control group” value in the data set with CYP2D6 (MDMA 1 mg/kg i.p. 1 h before liver perfusion) came out at 38%; with CYP2D6 (MDMA 10 mg/kg i.p. 1 h before liver perfusion), 50%. In addition, the “Metabolite ratio M1 % decrease compared to the control group” value was 29% in the data set with CYP2D6 (MDMA 1 mg/kg i.p.) and 45% in the data set with CYP2D6 (MDMA 10 mg/kg i.p.). Also, the “tramadol AUC compared to the control group” value in data set [2] is on record as “no significant differences”. In the data set on CYP3A4, the CYP3A4 activity inhibition entry is recorded as “cannot inhibit”.
`Fc1ccc([C@@H]2CCNC[C@H]2COc2ccc3c(c2)OCO3)cc1` [paroxetine]: the “AUC M1 % decrease compared to the control group” value in the data set with CYP2D6 (paroxetine 0.266 mg/kg oral, three consecutive days, listed as PXL) is recorded as 40* %. Also, the “Metabolite ratio M1 % decrease compared to the control group” value was 30% in the data set on CYP2D6 (paroxetine 0.266 mg/kg oral, three days) and 30* % in the data set on CYP2D6 (paroxetine 0.266 mg/kg oral, three days, listed as PXL).

Values taken from paper PMC8421619, “Investigation of MDMA Inhibitory Effect on CytochromeP450 3A4 in Isolated Perfused Rat Liver Model Using Tramadol” (Advanced Pharmaceutical Bulletin, 2020).
